Laboratory results taken from ChEMBL document CHEMBL3507680, “University of Dundee, Gates Library screen for HepG2 cell viability”.

Assay: Human HepG2 cell viability assay in 384 well format
Assay type: toxicity, cell-based
Set-up: dose 125 nL, time 70.5 hour; cytotoxicity at 70.5 h: concentration not given beside the values
Conditions: HepG2 cells, read-out: Inhibition

| Structure (SMILES) | cytotoxicity at 70.5 h [%] |
| --- | --- |
| Cc1cccc(CNC(CN2CCN(C)CC2)c2ccccc2)c1 (configuration not stated) | 10.9 |
| COc1ccc(F)cc1C(=O)N1CCC2(CCC(=O)N(C(C)C)C2)CC1 | -5.66 |
| CCc1ccsc1C(=O)N1CCN(CC(C)O)CC1 (configuration not stated) | -2.62 |
| CC(C)(C)OC(=O)N1CCC(NCc2cnn(C(C)(C)C)c2)CC1 | -2.5 |
| COc1c(C2CCCN2c2ncnc3c2cnn3C)c(C)nn1C (configuration not stated) | -5.32 |
| Cc1cnn(CC2CCCN2C(=O)c2ccc3[nH]c(=O)[nH]c3c2)c1 (configuration not stated) | -1.55 |
| CCNC(=O)NC(=O)CNC1(c2noc(C)n2)CCCCC1 | 28.5 |
| CCOc1cccc2c1OCC(C(=O)NS(=O)(=O)c1ccc(Br)s1)=C2 | 14.6 |
| CS(=O)(=O)N1CCOCC2(CN(Cc3nccs3)CCO2)C1 (configuration not stated) | 15.5 |
| CN(C)C(=O)N1C[C@@H]2CC[C@H](C1)N(C(=O)CCCn1cncn1)C2 | -10.6 |
| CCN(CC1CCOC1)C(=O)Nc1ccc(-n2cncn2)nc1 (configuration not stated) | -9.69 |
| c1ccc2c(c1)ccn2CCCNC1CCOC2(CCOCC2)C1 (configuration not stated) | 32.9 |
| Cc1cc(CN2CCC(CNS(=O)(=O)c3ccc(Br)s3)CC2)c(C)o1 | -7.28 |
| CC(C)N(Cc1nc2c(cnn2C)c(=O)[nH]1)c1ccccc1 | 3.46 |
| CSCC(C)(O)CNS(=O)(=O)c1cccc(C)c1 (configuration not stated) | 6.12 |
| CCOC(=O)C(C)Nc1ccc(CCN2CCOCC2)cc1 (configuration not stated) | -16.3 |
| c1ccc(NC[C@@H]2CCC[C@@H]3CN(Cc4cccnc4)C[C@@H]32)nc1 | -5.9 |
| COc1ccc(S(=O)(=O)NCCC(O)c2ccoc2)c(C)c1 (configuration not stated) | -5.52 |
| CS(=O)(=O)c1ccc(OCCNCc2c(F)cccc2F)cc1 | -3.48 |
| Cc1c(C)n(CC(O)CN2CCCCCC2)c2c(Cl)cccc12 (configuration not stated) | 20.5 |
| CCOC(C)C(=O)N1CCCN(Cc2csc(CC)n2)CC1 (configuration not stated) | 22.4 |
| Cc1ccsc1CN1CCc2c(nc(N3CCCCC3C)[nH]c2=O)C1 (configuration not stated) | -6.71 |
| CC(C)c1noc(CN2CCN(C(=O)c3ccncc3F)CC2)n1 | -9.24 |

| Structure (SMILES) | cytotoxicity at 70.5 h [%] |
| --- | --- |
| Cc1ccc(CCNC(=O)NCc2cccc(OC(F)F)c2)cn1 | -8.89 |
| CC(C)c1cc(-c2nn3c(C(C)C)nnc3s2)[nH]n1 | -11.4 |
| CC(C)=CCCC(C)CN1CCC(n2cc(C(=O)NCCO)nn2)CC1 (configuration not stated) | -4.56 |
| Cc1ccc(C(NC(=O)Cn2cc(C3CC3)nn2)C2CC2)cc1 (configuration not stated) | -7.56 |
| Cc1cc2[nH]c(O)nc2cc1NCc1ccc(F)cc1 | -10.2 |
| CSCCc1ccc(NC(=O)NCc2ccnc(N(C)C)c2)cc1 | 16.5 |
| CC(C)c1nccc(CN(C)Cc2cnn(-c3ccccc3)c2)n1 | 26.7 |
| CC(C)c1nn(C)c(N(C)C)c1CNC1CCc2cc(F)ccc21 (configuration not stated) | 5.83 |
| O=C1CO[C@@H]2CN(S(=O)(=O)c3ccccc3F)C[C@H]2N1 | -3.37 |
| CN(C)CCO[C@H]1CN(C(=O)c2cccs2)[C@@H]2COC[C@H]12 | 20.9 |
| Cc1cc(N(C)C)nc(N2CCn3c(C)nnc3C2)n1 | -17.7 |
| CCCC(=O)N1CCN(CCN(C)C)c2nc(C)ccc2C1 | -2.97 |
| Cn1ccnc1COc1ccc(CN2CCN(CCO)CC2)cc1 | 15 |
| CNC(=O)c1cccc(CC2COCCN(Cc3ccsc3)C2)n1 (configuration not stated) | -6.49 |
| NC(=O)c1cn[nH]c1C1CCCN1C(=O)c1ccccn1 (configuration not stated) | -4.23 |
| CCS(=O)(=O)CCNc1nc(C2CCCC2)nc2c1cnn2C | -6.16 |
| Cn1cc2ncn(CCCOc3cccnc3)c(=O)c2n1 | 22.8 |
| COc1ccc(CNCC2CCN(CCO)CC2)cc1F | -5.24 |
| CN(Cc1ncc[nH]1)C(=O)C(C)(C)NC(=O)c1cccs1 | -3.2 |
| COc1cc(CN(C)Cc2ccncc2)c(SC)cc1OC | -10.7 |
| CSc1sc2c(O)cc(=O)[nH]c2c1C(N)=O | 11.3 |
| CC(C)NC(=O)Nc1ccc2c(c1)ncn2CC(=O)NCCN(C)C | -12.7 |
| O=C(Nc1nc2c(s1)CN(S(=O)(=O)C1CC1)CC2)c1cccc(Cl)c1 | 8.23 |

| Structure (SMILES) | cytotoxicity at 70.5 h [%] |
| --- | --- |
| Cc1ccoc1C(=O)N1CCOCC2(CCN(c3ncccn3)C2)C1 (configuration not stated) | -11.7 |
| CC(C)COC(=O)N1CCN(C(=O)c2ccc3nccn3c2)CC1 | 30.9 |
| CCCN(C)c1ccc(C(=O)NCc2ccnc(C)n2)cc1 | -10 |
| CCS(=O)(=O)NCCNC(=O)c1cnc(-c2ccccc2)nc1 | -8.98 |
| COc1cc(N2CC[C@@H]3[C@@H](CC2)OCCN3CC2CC2)ncn1 | -4.1 |
| COCc1ccccc1C(=O)OCc1noc(C)n1 | -15.9 |
| CCc1ccc(CN(C)Cc2nc(COc3ccccc3)no2)nc1 | -7.21 |
| CN(C)S(=O)(=O)N1CC[C@]2(O)CCN(c3nc4ccccc4s3)C[C@@H]2C1 | 3.99 |
| CC(C)(NCc1ccc(C#N)cc1)c1ccc2c(c1)OCO2 | 12.3 |
| CCC(C)(C)NCc1nc(C(C)(C)NC(=O)OC(C)(C)C)no1 | -10.2 |
| Cc1ccc(-c2nc(CN3CCn4c(nnc4C4CC4)C3)co2)c(C)c1 | -5.17 |
| Cc1noc(C)c1-c1ccc(C2CCCN2C(=O)c2cnn(C)c2)nc1 (configuration not stated) | -0.651 |
| O=C(c1ccco1)N1CCc2ncc(CN3CCOCC3)n2CC1 | 18.7 |
| O=C(c1cscn1)N1CCCC(n2cncn2)C1 (configuration not stated) | -8.94 |
| Cc1nn(C)c(C)c1CC(=O)NCC1(C(N)=O)CCOCC1 | 22.8 |
| COc1cccc(CNc2nc(O)cc(C3CC(=O)N(C)C3)n2)c1 (configuration not stated) | -11.6 |
| CN(Cc1ccccc1)C(=O)CCNS(=O)(=O)c1cccnc1 | 11.8 |
| CCc1ccc2nc(-c3cnn(C)c3)cc(C(=O)N3CCOCC3)c2c1 | -7.51 |
| CCc1ccc(CN2CCN(Cc3ncc[nH]3)[C@H]3CS(=O)(=O)C[C@H]32)nc1 | -6.57 |
| O=C1NCCN1C1CCN(CCc2cccs2)CC1 | -11.4 |
| COc1cccc(-c2nc(CNCc3cccnc3)cs2)c1 | -17.2 |
| Cc1nnc(CCNC(=O)C(c2ccc(F)cc2)N(C)C)[nH]1 (configuration not stated) | 25 |
| Cc1nccn1-c1cc(CNS(=O)(=O)N2CCCC(C)C2)ccn1 (configuration not stated) | 18 |

| Structure (SMILES) | cytotoxicity at 70.5 h [%] |
| --- | --- |
| O=C(NCc1ccccn1)[C@@H]1CC[C@@H]2[C@@H](CCN2c2ncc(F)cn2)O1 | -11.3 |
| CS(=O)(=O)NC1CCCN(C(=O)NCc2cc[nH]n2)C1 (configuration not stated) | 10.8 |
| NC1(CNC(=O)c2cc3ccccc3[nH]2)CCCC1 | 16 |
| Cc1cc(C2CCCN(CCS(=O)(=O)c3ccccc3)C2)n[nH]1 (configuration not stated) | -8.26 |
| CCc1cc(=O)[nH]c(NC2CCN(S(=O)(=O)c3ccccc3)CC2)n1 | -7.53 |
| CNC(=O)C(C)CN(C)C(=O)Nc1ccc(F)c(-n2cccc2)c1 (configuration not stated) | 0.178 |
| Cc1ccc(C(=O)N2CC[C@H]3[C@H]2CCN3CC2CCOCC2)cc1F | 3.15 |
| Cc1oc(-c2ccccc2)nc1C(=O)NC1=NCCS1 | -0.24 |
| Cn1cc(C2CCCN2C(=O)Cn2ccc3ccccc32)cn1 (configuration not stated) | -0.47 |
| CN1CCN(c2ccc3ccc(C(=O)N4CCCO4)cn23)CC1 | -9.32 |
| CC(=O)N1CCCC1c1ccnc(Nc2cncnc2)n1 (configuration not stated) | -15.4 |
| CC(Oc1ccc(OCc2ncc(C(C)C)o2)cc1)C(N)=O (configuration not stated) | -8.33 |
| CC(C)(C)C(O)CN1CCN(C(=O)c2cccc3ncccc23)CC1 (configuration not stated) | 20.7 |
| CC(C(=O)N1CCCN(c2ncccc2C#N)CC1)n1cncn1 (configuration not stated) | -12.1 |
| CCOc1ncccc1NC(=O)NC1CCN(C(=O)C2CC2)CC1 | 3.99 |
| c1cncc(COCC2C[C@@H]3OCCN(Cc4cccnc4)[C@H]3C2)c1 (some centres not stated) | -2.24 |
| CN1CCN([C@@H]2CN(C(=O)CCOc3ccccc3)C[C@H]2O)CC1 | 10.8 |
| OCCN1CCCC(c2cccc(-c3ccccc3F)n2)C1 (configuration not stated) | -5.22 |
| Cc1csc(C2(NCc3csc(C4CC4)n3)CCCC2)n1 | -9.17 |
| c1nc2n(c1CN1CCCC1)CCN(C1CCOCC1)CC2 | -7.69 |
| CSCCc1c(-c2ccccc2)ncn1CC(C)(C)N1CCCC1 | -10.9 |
| Cc1cnn(CC2CCCCN2CC(=O)NCc2ccccn2)c1 (configuration not stated) | -11 |
| CCOc1ncccc1NC(=O)N1CCN(c2cccc(C)c2C)CC1 | 21.9 |

| Structure (SMILES) | cytotoxicity at 70.5 h [%] |
| --- | --- |
| CCN(CC)Cc1cc(=O)n2c(n1)CN(C(=O)c1ccnnc1)CCC2 | -3.81 |
| Cc1cccn2cc(CC(=O)N(CCN(C)C)CC3CCCO3)nc12 (configuration not stated) | 17.3 |
| Cc1ccc(S(=O)(=O)c2ncccc2CN2CCOCC2)cc1 | -17.9 |
| O=C(O)c1ccc(F)c(S(=O)(=O)Nc2ccc(-n3cccn3)c(Cl)c2)c1 | -6.87 |
| COc1ccc(CN2CCn3cccc3C2C)cc1F (configuration not stated) | -3.79 |
| NC(=O)c1ccnc(N2CCCC(CO)(Cc3ccccc3)C2)c1 (configuration not stated) | -5.88 |
| Cc1nc(CC(=O)N2CCC(c3nn(C)c4ncccc34)CC2)cs1 | -9.42 |
| CCN1CCCC(O)(CN(C)Cc2ccccc2F)C1 (configuration not stated) | -9.61 |
| Cc1nc[nH]c1CN1CCC(C2CCN(CCc3ccccc3)C2)CC1 (configuration not stated) | -1.67 |
| CCNC(=O)NC(=O)CSC(C)c1ccccc1F (configuration not stated) | -9.82 |
| O=C(c1ccc(-n2cccn2)cc1Cl)N1CCCC(O)(CO)C1 (configuration not stated) | -4.68 |
| CCc1cccc(N2CCC(NC(=O)C3CCCO3)CC2)c1 (configuration not stated) | -3.65 |
| CC(C)c1nc(C2CCCN(C(=O)c3cccc4c3OCO4)C2)no1 (configuration not stated) | -1.62 |
| O=C(c1cccnc1O)N1CCCN(c2cccnn2)CC1 | -9.98 |
| CC1CCN(C(=O)C2CCCN(C(=O)Nc3ccccn3)C2)CC1 (configuration not stated) | -9.24 |
| NCC1Cc2cc(F)cc(-c3cnccn3)c2O1 (configuration not stated) | -3.38 |
| CCC[C@H]1CN(Cc2cscn2)C[C@@H]1NC(=O)C1(COC)CCC1 | -4.5 |
| CC(C)CN1C[C@H]2C[C@H](C(=O)Nc3cccnc3)[C@@H](C1)O2 | -4.05 |
| Cc1cnc2[nH]c(C(F)(F)F)c(CN3CCOCC3)c2c1 | 21.8 |
| CN(C)c1cc2c(nn1)CCN(C(=O)C1CCc3ccccc31)C2 (configuration not stated) | 13.5 |
